Patent US8735414B2 (priority 2009, dated 2014)

Tests used:
[1] = test system: bicistronic HCV replicon (replicon RNA, GenBank Accession No. AJ242654); assay: HCV Replicon Assay; type: cell-based; conditions: Hepatitis C virus, 72 h, read-out: Replicon IC50

N#Cc1c(-c2ccc(S(=O)(=O)NC(CF)CF)cn2)n(CC2CC2)c2cc(Cl)ccc12 [compound 62, 6-[6-chloro-3-cyano-1-(cyclopropylmethyl)-1H-indol-2-yl]-N-(1,3-difluoropropan-2-yl)pyridine-3-sulfonamide]
IC50 [1]: < 500 nM
melting point: 223 to 227 °C

CCc1cc2c(cc1F)c(C#N)c(-c1ccc(S(=O)(=O)N[C@@H](C)C(F)(F)F)cn1)n2-c1ccncn1 [compound 964, 6-[3-cyano-6-ethyl-5-fluoro-1-(pyrimidin-4-yl)-1H-indol-2-yl]-N-[(2S)-1,1,1-trifluoropropan-2-yl]pyridine-3-sulfonamide]
IC50 [1]: < 500 nM
melting point: 202 to 206 °C

Cc1cc2c(cc1F)c(C(=O)N(C)C)c(-c1ccc(S(=O)(=O)N[C@@H](C)C(F)(F)F)cn1)n2C1CCCC1 [compound 783, 1-cyclopentyl-5-fluoro-N,N,6-trimethyl-2-(5-{[(2S)-1,1,1-trifluoropropan-2-yl]sulfamoyl}pyridin-2-yl)-1H-indole-3-carboxamide]
IC50 [1]: 2000 to 5000 nM
melting point: 278 to 280 °C

CCc1ccc2c(c1)c(C#N)c(-c1ccc(S(=O)(=O)NC(CF)CF)cn1)n2C1CCC1 [compound 258, 6-(3-cyano-1-cyclobutyl-5-ethyl-1H-indol-2-yl)-N-(1,3-difluoropropan-2-yl)pyridine-3-sulfonamide]
IC50 [1]: < 500 nM
melting point: 163 to 164 °C

Cc1cc2c(cc1F)c(C#N)c(-c1ccc(S(=O)(=O)N[C@@H](C)C(F)(F)F)cn1)n2-c1cnccn1 [compound 817, 6-[3-cyano-5-fluoro-6-methyl-1-(pyrazin-2-yl)-1H-indol-2-yl]-N-[(2S)-1,1,1-trifluoropropan-2-yl]pyridine-3-sulfonamide]
IC50 [1]: < 500 nM
melting point: 220 to 223 °C

CCc1ccc2c(c1)c(C#N)c(-c1ccc(S(=O)(=O)N[C@@H](C)C(F)(F)F)cn1)n2C1CCC1 [compound 339, 6-(3-cyano-1-cyclobutyl-5-ethyl-1H-indol-2-yl)-N-[(2S)-1,1,1-trifluoropropan-2-yl]pyridine-3-sulfonamide]
IC50 [1]: < 500 nM
melting point: 168 to 169 °C

Cc1cc2c(C#N)c(-c3ccc(S(=O)(=O)N[C@@H](C)C(F)(F)F)cn3)n(-c3cnccn3)c2cc1F [compound 919, 6-[3-cyano-6-fluoro-5-methyl-1-(pyrazin-2-yl)-1H-indol-2-yl]-N-[(2S)-1,1,1-trifluoropropan-2-yl]pyridine-3-sulfonamide]
IC50 [1]: < 500 nM
melting point: 233 to 238 °C

C[C@H](NS(=O)(=O)c1ccc(-c2c(C#N)c3cc(Cl)ccc3n2-c2ccccn2)nc1)C(F)(F)F [compound 442, 6-[5-chloro-3-cyano-1-(pyridin-2-yl)-1H-indol-2-yl]-N-[(2S)-1,1,1-trifluoropropan-2-yl]pyridine-3-sulfonamide]
IC50 [1]: < 500 nM
melting point: 186 to 188 °C

CC(C)NS(=O)(=O)c1cnc(-c2c(C#N)c3cc(F)ccc3n2C2CCCCC2)nc1 [compound 526, 2-(3-cyano-1-cyclohexyl-5-fluoro-1H-indol-2-yl)-N-(propan-2-yl)pyrimidine-5-sulfonamide]
IC50 [1]: < 500 nM
melting point: 223 to 225 °C

CC(C)NS(=O)(=O)c1ccc(-c2c(C#N)c3ccc(OC4CCC4)cc3n2C2CCC2)cn1 [compound 4, 5-[3-cyano-1-cyclobutyl-6-(cyclobutyloxy)-1H-indol-2-yl]-N-(propan-2-yl)pyridine-2-sulfonamide]
IC50 [1]: 2000 to 5000 nM
melting point: 178 to 180 °C

Cc1ccc2c(C#N)c(-c3ccc(S(=O)(=O)NC(C)(C)C(F)(F)F)cn3)n(-c3ccccc3)c2c1 [compound 585, 6-(3-cyano-6-methyl-1-phenyl-1H-indol-2-yl)-N-(1,1,1-trifluoro-2-methylpropan-2-yl)pyridine-3-sulfonamide]
IC50 [1]: < 500 nM
melting point: 210 to 212 °C

Cc1cc2c(cc1F)c(C(N)=O)c(-c1ccc(S(=O)(=O)N[C@@H](C)C(F)(F)F)cn1)n2-c1cccc(F)n1 [compound 877, 5-fluoro-1-(6-fluoropyridin-2-yl)-6-methyl-2-(5-{[(2S)-1,1,1-trifluoropropan-2-yl]sulfamoyl}pyridin-2-yl)-1H-indole-3-carboxamide]
IC50 [1]: < 500 nM
melting point: 210 to 214 °C

Cc1ccc2cc(-c3ccc(S(=O)(=O)NC(CF)CF)cn3)n(C3CCC3)c2c1 [compound 511, 6-(1-cyclobutyl-6-methyl-1H-indol-2-yl)-N-(1,3-difluoropropan-2-yl)pyridine-3-sulfonamide]
IC50 [1]: < 500 nM
melting point: 137 to 139 °C

CC(C)n1c(-c2ccc(S(=O)(=O)NC(CF)CF)cn2)c(C#N)c2cc(Cl)ccc21 [compound 65, 6-[5-chloro-3-cyano-1-(propan-2-yl)-1H-indol-2-yl]-N-(1,3-difluoropropan-2-yl)pyridine-3-sulfonamide]
IC50 [1]: < 500 nM
melting point: 212 to 215 °C

Cc1ccc2c(C#N)c(-c3ccc(S(=O)(=O)N[C@@H](C)C(F)(F)F)cn3)n(C3CCC3)c2c1F [compound 421, 6-(3-cyano-1-cyclobutyl-7-fluoro-6-methyl-1H-indol-2-yl)-N-[(2S)-1,1,1-trifluoropropan-2-yl]pyridine-3-sulfonamide]
IC50 [1]: < 500 nM
melting point: 210 to 220 °C

CC(C)NS(=O)(=O)c1cnc(-c2c(C#N)c3ccc(C4CCC4)cc3n2C2CCC2)nc1 [compound 265, 2-(3-cyano-1,6-dicyclobutyl-1H-indol-2-yl)-N-(propan-2-yl)pyrimidine-5-sulfonamide]
IC50 [1]: 500 to 2000 nM
melting point: 192 to 194 °C

Cc1cc2c(cc1F)c(C#N)c(-c1ccc(S(=O)(=O)N[C@@H](C)C(F)(F)F)cn1)n2C1CCC1 [compound 340, 6-(3-cyano-1-cyclobutyl-5-fluoro-6-methyl-1H-indol-2-yl)-N-[(2S)-1,1,1-trifluoropropan-2-yl]pyridine-3-sulfonamide]
IC50 [1]: < 500 nM
melting point: 218 to 219 °C

CC(C)NS(=O)(=O)c1cnc(-c2c(C#N)c3ccc(C4CC4)cc3n2C2CCC2)nc1 [compound 71, 2-(3-cyano-1-cyclobutyl-6-cyclopropyl-1H-indol-2-yl)-N-(propan-2-yl)pyrimidine-5-sulfonamide]
IC50 [1]: < 500 nM
melting point: 192 to 193 °C

CC(C)NS(=O)(=O)c1cnc(-c2c(C#N)c3ccc(F)cc3n2C(C)C)nc1 [compound 140, 2-[3-cyano-6-fluoro-1-(propan-2-yl)-1H-indol-2-yl]-N-(propan-2-yl)pyrimidine-5-sulfonamide]
IC50 [1]: 500 to 2000 nM
melting point: 158 to 160 °C

CCNC(=O)c1c(-c2ccc(S(=O)(=O)N[C@@H](C)C(F)(F)F)cn2)n(C2CCCC2)c2cc(C)c(F)cc12 [compound 762, 1-cyclopentyl-N-ethyl-5-fluoro-6-methyl-2-(5-{[(2S)-1,1,1-trifluoropropan-2-yl]sulfamoyl}pyridin-2-yl)-1H-indole-3-carboxamide]
IC50 [1]: < 500 nM
melting point: 160 to 162 °C

N#Cc1c(-c2ncc(S(=O)(=O)NC(CF)CF)cn2)n(CC2CC2)c2ccc(F)cc12 [compound 302, 2-[3-cyano-1-(cyclopropylmethyl)-5-fluoro-1H-indol-2-yl]-N-(1,3-difluoropropan-2-yl)pyrimidine-5-sulfonamide]
IC50 [1]: < 500 nM
melting point: 216 to 221 °C

C[C@H](NS(=O)(=O)c1ccc(-c2c(C#N)c3cc(F)ccc3n2C2CCCC2)nc1)C1CC1 [compound 143, 6-(3-cyano-1-cyclopentyl-5-fluoro-1H-indol-2-yl)-N-[(1S)-1-cyclopropylethyl]pyridine-3-sulfonamide]
IC50 [1]: < 500 nM
melting point: 159 to 160 °C

C[C@H](NS(=O)(=O)c1ccc(-c2c(C#N)c3ccc(C(F)(F)F)cc3n2-c2cnccn2)nc1)C(F)(F)F [compound 951, 6-[3-cyano-1-(pyrazin-2-yl)-6-(trifluoromethyl)-1H-indol-2-yl]-N-[(2S)-1,1,1-trifluoropropan-2-yl]pyridine-3-sulfonamide]
IC50 [1]: < 500 nM
melting point: 208 to 213 °C

Cc1cc(S(=O)(=O)N[C@@H](C)C(F)(F)F)cnc1-c1c(C#N)c2cc(F)c(OC(F)F)cc2n1C1CCC1 [compound 827, 6-[3-cyano-1-cyclobutyl-6-(difluoromethoxy)-5-fluoro-1H-indol-2-yl]-5-methyl-N-[(2S)-1,1,1-trifluoropropan-2-yl]pyridine-3-sulfonamide]
IC50 [1]: < 500 nM
melting point: 150 to 155 °C

Cc1ccc2c(C#N)c(-c3ccc(S(=O)(=O)N[C@@H](C)C4CC4)cn3)n(C3CCC3)c2c1 [compound 238, 6-(3-cyano-1-cyclobutyl-6-methyl-1H-indol-2-yl)-N-[(1S)-1-cyclopropylethyl]pyridine-3-sulfonamide]
IC50 [1]: < 500 nM
melting point: 181 to 187 °C

CCc1cc2c(cc1F)c(C#N)c(-c1ccc(S(=O)(=O)N[C@@H](C)C(F)(F)F)cn1)n2-c1nccs1 [compound 935, 6-[3-cyano-6-ethyl-5-fluoro-1-(1,3-thiazol-2-yl)-1H-indol-2-yl]-N-[(2S)-1,1,1-trifluoropropan-2-yl]pyridine-3-sulfonamide]
IC50 [1]: < 500 nM
melting point: 187 to 191 °C

C[C@H](NS(=O)(=O)c1ccc(-c2c(C#N)c3ccc(C(F)F)cc3n2C2CCC2)nc1)C(F)(F)F [compound 363, 6-[3-cyano-1-cyclobutyl-6-(difluoromethyl)-1H-indol-2-yl]-N-[(2S)-1,1,1-trifluoropropan-2-yl]pyridine-3-sulfonamide]
IC50 [1]: < 500 nM
melting point: 198 to 207 °C

Cc1ccc2c(C#N)c(-c3ncc(S(=O)(=O)N[C@@H](C)C(F)(F)F)cn3)n(CC3CC3)c2c1 [compound 402, 2-[3-cyano-1-(cyclopropylmethyl)-6-methyl-1H-indol-2-yl]-N-[(2S)-1,1,1-trifluoropropan-2-yl]pyrimidine-5-sulfonamide]
IC50 [1]: < 500 nM
melting point: 259 to 260 °C

CC(C)NS(=O)(=O)c1ccc(-c2c(C#N)c3cc(F)ccc3n2C2CCOC2)nc1 (stereo not shown) [compound 47, 6-[3-cyano-5-fluoro-1-(tetrahydrofuran-3-yl)-1H-indol-2-yl]-N-(propan-2-yl)pyridine-3-sulfonamide]
IC50 [1]: < 500 nM
melting point: 185 to 188 °C
